# According to patent US20200148682A1, “AKT ISOZYME-SPECIFIC COVALENT INHIBITORS DERIVED FROM REDOX-SIGNALING LIPIDS” (Cornell University, priority 2017, published 2020):
# “Also recorded” adds a separate entry of the source.
# Key:
# Assay type in all cases: cell-based
# MDA-MB-468 cells = test: Cell cycle analysis using flow cytometry
# Method: MDA-MB-468 cells in a 6-well plate at 10% confluence were treated with HNE alkyne or the indicated drug at PI60 or PI80 concentration for 72 hours at 37° C. Negative control contained the equivalent volume of DMSO. Cells were grown and analyzed in separate batches of 1-2 replicates per condition that were run 2-3 times each. Each time the data points were normalized to the control set for each batch. At the indicated time post compound treatment, the culture medium was aspirated and the adherent cells were detached from the plate using trypsin, quenched with complete media, centrifuged (700 g), washed once with PBS, centrifuged (700 g), resuspended in PBS, then fixed with 70% ethanol for 24 hours. The cell suspensions were spun down at 1,000 g and washed with 500 μl of PBS twice. Each cell pellet was treated with 500 μL staining solution containing 50 μl of Ribonuclease A (≥70 Kunitz units/mg proteins, R6513, Sigma-Aldrich) and 50 μl of a propidium iodide (1 mg/ml, Sigma-Aldrich) solution in PBS with 1% BSA. The resulting solution was incubated with agitation at room temperature for 30 min in the dark.
# The stained cells were assayed on a BD LSR II flow cytometer. FlowJo® was used to deconvolute the signals. Cells were grouped first by forward and side scatter (area), then that group was regrouped using forward (width) versus forward (area) scatter to give single cells. Cells were than analyzed using cellular DNA content to quantitate the percentage of cells in the respective phases (G1, S, G2/M and sub-G0) of the cell cycle.
# [1] = tested on: Akt1, Akt2, Akt3 isoforms; test: Akt isoform selectivity of covalent inhibition (in-gel fluorescence, transfected HEK293T cells)
# From the text: Overexpressed Akt proteins were labeled with Cy5-small-molecule-fluorophore-conjugated azide (Cy5-azide) using standard click chemistry. FIG. 16A top gel is an image showing Cy5 channel (used to evaluate the extent of covalent binding on each Akt protein). The lysate from non-transfected HEK 293T cells was also used for comparison. M, molecular weight ladder. […] FIG. 16B top gel is an image showing Cy5 channel. M is a molecular weight ladder. FIG. 16B bottom is an image showing western blots probing Halo and actin, respectively. […] Error bars designate s.d. […] Normalized fluorescent signal (NFS) was calculated from the following equation: NFS=[(Cy5(X μM drug)−Cy5(No transfection))/Halo(X μM drug)]÷[(Cy5(no drug)−Cy5(No transfection))/Halo(no drug)]. The relative fluorescent signal (RFS) is calculated from the following equation: RFS=(Cy5(X μM drug)/Halo(X μM drug)) (Cy5(no drug)/Halo(no drug))
# Cell transfection with the designated plasmid encoding a given HaloTag-Akt fusion gene was carried out following the general procedure described in Example 12. After 20-24 hours, the transfection media were aspirated and replaced with fresh 2 mL rinse MEM medium supplemented with 3% FBS containing the indicated concentration of inhibitor or the equivalent final volume of DMSO and the plates were incubated for the indicated period of time. […]
# Halo-Akt3 = target: T1, Halo-Akt3 (Homo sapiens, UniProt Q9Y243); test: In-gel fluorescence assay (Cy5-azide click) of covalent labeling in transfected HEK293T cells; conditions: 5 μM, 48 hours
# T1 construct: expressed in transfected cells; host or cells: HEK293T
# Method: HEK293T cells were transfected with Halo-Akt3 for 20 hours, then treated with the stated compound (5 μM, 48 hours). After this time, cells were lysed and the labeling was assayed by click chemistry. […] FIGS. 19A, 19C top gels are images showing in gel fluorescence, Cy5 channel. M is a molecular weight ladder. FIG. 19A, 19C lower panels are images of western blots (probing for Halo and actin, respectively) transferred from the same gel as the top image. […] FIGS. 19E-19F are graphs showing quantitation of in-gel Cy5 signal intensity, divided by the western blot signal for Halo.
# Cell transfection with the designated plasmid encoding a given HaloTag-Akt fusion gene was carried out following the general procedure described in Example 12. After 20-24 hours, the transfection media were aspirated and replaced with fresh 2 mL rinse MEM medium supplemented with 3% FBS containing the indicated concentration of inhibitor or the equivalent final volume of DMSO and the plates were incubated for the indicated period of time. Cells were then harvested and lysed following the general procedure described in Examples 11 and 13. A portion of the lysate was made up to 25 μL final volume containing, in final concentrations, 5% t-BuOH, [2 mM TCEP, 1% SDS, 1 mM CuSO4, 0.1 mM Cu(TBTA), 10 μM Cy5 azide made up as a 10× stock in water] and 1.0 mg/mL lysate protein. The samples were incubated at 37° C. for 30 min and subsequently quenched with 8 μL of 4×Laemmeli dye containing 6% f ME. After an additional 5-min incubation at 37° C., samples were resolved on a 10% SDS-PAGE gel following the general procedure described in Example 14. After electrophoresis, the gel was rinsed three times with ddH2O and imaged on a Bio-Rad Chemi-doc-MP Imager. Where applicable, the gel was transferred to a PVDF membrane for western blot analysis following the general procedure described in Example 15.
# BT-549 = test: Cell viability assay (AlamarBlue); conditions: BT-549, 72 hours
# Method: (§1) FIGS. 22A and 22D are graphs showing results of cytotoxicity assays for MDA-MB-468 (FIG. 22A) and BT-549 (FIG. 22D). […] Stated cell lines were plated in 96-well plates (3000 cells per well) in the presence of the stated concentration of inhibitor. After 72 hours, the number of viable cells was analyzed by AlamarBlue®. Proliferation inhibition 50% (PI50) values were calculated by fitting data to “PI50 equation” (EQN 4) (FIG. 22C). MDA cells were transfected with the stated siRNA using lipofectamine 3000 for 12 hours. […] After 72 hours, the number of viable cells was calculated using AlamarBlue®. FIG. 22F is a schematic showing AlamarBlue® viability assay. […] MDA-MB-468 cells were treated with the stated drugs for 72 hours at the PI60 and PI80. After this time, cells were harvested, fixed/permeabilized with ethanol and DNA content was stained using propidium iodide (visualized in the 488-3 channel). RNA was removed simultaneously using RNAse. After 30 min at room temperature, cells were analyzed by flow cytometry.
# (§2) Indicated cells were plated in a 96-well plate containing the DMEM complete medium (see Example 11 for complete medium formulation, 100 μL per well) with a density of 3,000-5,000 cells per well for 12 hours followed by the addition of varying concentrations of inhibitors in rinse medium (100 μL). The cells were allowed to grow for 72 hours and 100 μL of the culture medium was removed from each well. This was followed by the addition of 10 μL AlamarBlue® reagent to each well. The fluorescence emission signals at 590 nm were read by Cytation 3 cell imaging multi-mode reader (BioTeK) using an excitation wavelength of 560 nm. Curve fitting and data analysis were performed using Prism software.
# MDA-MB-468 = test: Cell viability assay (AlamarBlue); conditions: MDA-MB-468, 72 hours
# Method: as §1, §2
# T1 sequence (Q9Y243 whole entry): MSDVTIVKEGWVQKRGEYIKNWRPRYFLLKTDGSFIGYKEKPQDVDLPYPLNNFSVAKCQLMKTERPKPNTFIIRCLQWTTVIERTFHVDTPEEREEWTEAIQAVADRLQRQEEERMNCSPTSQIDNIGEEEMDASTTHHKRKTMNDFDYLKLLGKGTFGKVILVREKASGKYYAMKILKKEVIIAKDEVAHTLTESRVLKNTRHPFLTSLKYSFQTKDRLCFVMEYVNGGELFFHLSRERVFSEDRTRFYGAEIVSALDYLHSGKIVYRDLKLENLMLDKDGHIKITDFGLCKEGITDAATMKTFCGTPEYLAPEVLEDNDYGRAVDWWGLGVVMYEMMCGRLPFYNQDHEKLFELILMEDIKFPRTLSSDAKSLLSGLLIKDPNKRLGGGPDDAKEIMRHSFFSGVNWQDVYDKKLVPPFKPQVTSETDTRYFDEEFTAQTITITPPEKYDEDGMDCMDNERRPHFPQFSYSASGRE
compound,measurement,setting,value
CC(C)NC[C@@H](C(=O)N1CCN(c2ncnc3c2[C@H](C)C[C@H]3O)CC1)c1ccc(Cl)cc1 [GDC-0068],G1/G0 (percentage of cells in phase),"MDA-MB-468 cells; drug at PI60, 72 hours",52.6
same,G2/M (percentage of cells in phase),"MDA-MB-468 cells; drug at PI60, 72 hours",28.3
same,S (percentage of cells in phase),"MDA-MB-468 cells; drug at PI60, 72 hours",12.1
same,subG0 (percentage of cells in phase),"MDA-MB-468 cells; drug at PI60, 72 hours",1.64
CCn1c(-c2nonc2N)nc2c(C#CC(C)(C)O)ncc(OC[C@H]3CCCNC3)c21 [GSK-69063],G1/G0 (percentage of cells in phase),"MDA-MB-468 cells; drug at PI80, 72 hours",47.7
same,G2/M (percentage of cells in phase),"MDA-MB-468 cells; drug at PI80, 72 hours",30.0
same,S (percentage of cells in phase),"MDA-MB-468 cells; drug at PI80, 72 hours",14.3
same,subG0 (percentage of cells in phase),"MDA-MB-468 cells; drug at PI80, 72 hours",0.92
C#CCCCC(O)C=CC=O (stereo not shown) [HNE alkyne],G1/G0 (percentage of cells in phase),"MDA-MB-468 cells; drug at PI60, 72 hours",40.0
same,G2/M (percentage of cells in phase),"MDA-MB-468 cells; drug at PI60, 72 hours",30.8
same,S (percentage of cells in phase),"MDA-MB-468 cells; drug at PI60, 72 hours",26.3
same,subG0 (percentage of cells in phase),"MDA-MB-468 cells; drug at PI60, 72 hours",3.7
same,G1/G0 (percentage of cells in phase),"MDA-MB-468 cells; drug at PI80, 72 hours",28.5
same,G2/M (percentage of cells in phase),"MDA-MB-468 cells; drug at PI80, 72 hours",22
same,S (percentage of cells in phase),"MDA-MB-468 cells; drug at PI80, 72 hours",31.3
same,subG0 (percentage of cells in phase),"MDA-MB-468 cells; drug at PI80, 72 hours",18.2
"CCCCCC(O)/C=C/C=O (stereo not shown) [HNE, hydroxynonenal]",effect on cell cycle,MDA-MB-468 cells; 72 hours,S-phase arrest; also recorded: loss of G1
"C#CCCCCC(O)C(=C)C(=O)NC1(c2ccc(-c3nc4ccn5c(=O)[nH]nc5c4cc3-c3ccccc3)cc2)CCC1.Cl (stereo not shown) [MK-G, 8-(4-(1-(3-Hydroxy-2-methylenenon-8-ynamido)cyclobutyl)phenyl)-3-oxo-9-phenyl-2,3-dihydro-[1,2,4]triazolo[3,4-f][1,6]naphthyridin-7-ium Chloride]",Akt isozyme selectivity of inhibition,[1],no isozyme-selective inhibition
"C#CCCCC(O)CCC(=O)NC1(c2ccc(-c3nc4ccn5c(=O)[nH]nc5c4cc3-c3ccccc3)cc2)CCC1.Cl (stereo not shown) [MK-HNA, 8-(4-(1-(4-Hydroxynon-8-ynamido)cyclobutyl)phenyl)-3-oxo-9-phenyl-2,3-dihydro-[1,2,4]triazolo[3,4-f][1,6]naphthyridin-7-ium Chloride]",covalent labeling of Halo-Akt3,Halo-Akt3,no covalent labeling was observed
"C#CCCCC/C=C/C(=O)NC1(c2ccc(-c3nc4ccn5c(=O)[nH]nc5c4cc3-c3ccccc3)cc2)CCC1 [MK-dHNE, (E)-8-(4-(1-(Non-2-en-8-ynamido)cyclobutyl)phenyl)-3-oxo-9-phenyl-2,3-dihydro-[1,2,4]triazolo[3,4-f][1,6]naphthyridin-7-ium Chloride]",covalent labeling of Halo-Akt3,Halo-Akt3,able to elicit covalent labeling
same,toxicity / potency relative to MK-2206,BT-549,less effective than MK-2206
same,toxicity / potency relative to MK-2206,MDA-MB-468,less effective than MK-2206
